Laboratory results as given in US12623942B2, “Method for extracting salts and temperature- regenerated extracting composition” (ADIONICS, priority 2016, dated 2026).

Tests used:
[1] = Liquid-liquid extraction of mono-salt saline solution
Source text: The extracting composition is obtained by solubilizing an amount of CEM and ASM in the selected fluidizing agent, dichloromethane CH2Cl2, dichlorobenzene or dichlorotoluene or any other fluidizing agent able to well solubilize the mixture CEM/ASM in order to obtain the searched final concentrations after solubilizing CEMs and ASMs in a minimum of 3 milliliters of fluidizing agent. If the selected fluidizing agent is also an ASM compound, so the selected ASM volume is at least 3 milliliters. The given concentrations of ASM2 and ASM9 are related to the added fluidizing agent volume and the concentrations of CEM are related to the added fluidizing agent+ASM volume. The extracting organic composition is then lightly heated so as to promote the solubilization of the organic compounds by means of a heat gun (temperature around 50 to 60° C.) for a few seconds (10 to 30 seconds) until a clear solution is obtained. The composition is thus left for 24 hours at room temperature so as to make sure that the obtained formulation is stable.
These sealed formulations are then orbitally stirred at 500 revolutions/minute for two hours after adding an equivalent volume of water which was distilled twice so as to allow a water saturation of the whole formulation and a pH control at the inlet and at the outlet (pH close to 7, or at least maintained after contact with the saturation water).
3 mL of the prepared extracting organic composition are then taken from the lower phase of the decanted diphasic mixture and transferred to a vial containing 3 mL of the water containing the one or more considered chloride salts (NaCl or others), then the vial is sealed and orbitally stirred (at 500 revolutions per minute) for 2 hours at room temperature (RT), that is to say between 20 and 25° C.
A verification is made to make sure that droplets in the range of 1-2 mm are really present during these stirrings in order to be sure that an equilibrium in the distribution of the considered chloride salt (NaCl or other) is achieved between both liquid phases at the end of stirring. The aspect of the organic and aqueous phases is clear and colorless or slightly turbid.
Once the 2-hour stirring is carried out, the stirring is stopped and the whole is left for decantation for about 10 minutes, at least until both phases are completely separated, at the temperature of the assay. Then, the upper aqueous phase is taken then stirred and diluted in order to analyze its salinity by a ion chromatography (a Metrohm™ device including a cation analyzing column and an anion analyzing column suitable for the ions and for the concentration of the salts which are searched for). Likewise, the chloride salt (NaCl or other) initial aqueous solution is also analyzed by this ion chromatography to determine its cation and chloride molar relative concentration before the extraction. All the extractions and analyses were duplicated.
The considered extracting composition comprises 0.1 mol/L of CEM1 and 3.52 mol/L of ASM2 in dichloromethane CH2Cl2, which was obtained as described above. The initial concentration of the considered salt in water, whether it is LiCl, NaCl, KCl, MgCl2, CaCl2, SrCl2 or BaCl2, is 0.1 mol/L.
After carrying out these 7 specific extractions (duplicated) of salts, the amounts of extracted cations in relative molar percentage before and after extraction at room temperature and at water/extracting formulation iso-volume are indicated in table I: […]

[2] = Selective extraction from a binary mixture NaCl/CaCl2; conditions: for % E Ca^++ / % E Na^+: RT, molar %
Source text: A brine containing an equimolar mixture of salts, 0.05 mol/L of NaCl and CaCl2 each, which was made as described above, was contacted with two extracting compositions, one of which according to the invention.
Each extracting composition comprises 0.1 mol/L of CEM
[drawing 53] and 2.4 mol/L of ASM9 in 1,2-dichlorobenzene.
A brine containing a mixture of NaCl and CaCl2 is made as described above to obtain the following initial saline concentrations in a mixture: 0.2 Mol/L of NaCl and 0.03 Mol/L of CaCl2. The extracting resin, is composed of 0.1 Mol/L of CEM2, 3.52 Mol/L of ASM2 and a complement of liquid ASM1, which is also used as a fluidizing agent.

[3] = Regeneration (back-extraction) of the extracting composition charged with CaCl2
Method: Two samples of the extracting composition of example 4 with the highest content of CaCl2 at 20° C. were contacted with a saline water at 1 Mol/L of CaCl2 at room temperature to increase the salt charging level of the dissolved CEM2 cation extracting molecules, and thus to get close to their salt saturation level (0.1 Mol/L). Then, these two samples were contacted with an iso-volume of distilled water at 20° C. and stirred. One of the two diphasic samples was then heated up to 80° C. and kept under stirring. The initial salt charging level being assessed at 80 mMol/L, it appears that the latter drops to 15.27 mMol/L from the first regeneration step at 80° C. whereas, during regeneration at 20° C., the salt residual concentration is 29.3 mMol/L. FIG. 4 illustrates the results obtained throughout several serial steps of contacting the hydrophobic organic liquid phase charged with salts with an iso-volume of distilled water. […] In use, this advantage seems to be even more significant when a resin with a high CEM content, and thus a high salt content, is implemented.

[4] = 0.1M CEM + 3.52M ASM2 in CH2Cl2, initial salt 0.1 mol/L, Org./Water = 1, molar %
[5] = 0.1 Mol/L CEM2 + 3.52 Mol/L ASM2 + complement of liquid ASM1, brine 0.2 Mol/L NaCl and 0.03 Mol/L CaCl2
[6] = 0.1 mol/L CEM + 2.4 mol/L ASM9 in 1,2-dichlorobenzene, brine 0.05 mol/L NaCl and CaCl2 each

Compound: CCN(CC)C(=O)COc1c2cc(C(C)(C)C)cc1Cc1cc(C(C)(C)C)cc(c1OCC(=O)N(CC)CC)Cc1cc(C(C)(C)C)cc(c1OCC(=O)N(CC)CC)Cc1cc(C(C)(C)C)cc(c1OCC(=O)N(CC)CC)Cc1cc(C(C)(C)C)cc(c1OCC(=O)N(CC)CC)Cc1cc(C(C)(C)C)cc(c1OCC(=O)N(CC)CC)C2 [CEM2, 4-tert-butyl-Calix[6]arene hexakis(N,N-diethylacetamide)]
- Extraction rate at room temperature (RT), BaCl2 [1, 4]: 63.2%
- Extraction rate at room temperature (RT), CaCl2 [1, 4]: 57.8%
- Extraction rate at room temperature (RT), KCl [1, 4]: 25.4%
- Extraction rate at room temperature (RT), LiCl [1, 4]: 21.9%
- Extraction rate at room temperature (RT), MgCl2 [1, 4]: 13.5%
- Extraction rate at room temperature (RT), NaCl [1, 4]: 22.7%
- Extraction rate at room temperature (RT), SrCl2 [1, 4]: 63.8%
- Calcium to sodium extraction rate ([1]; solutions containing only one of these salts (example 3)): 2.54
- % E Ca^++ [2, 5]: 88.0%
- % E Na^+ [2, 5]: 5.0%
- % E Ca^++ [2, 6]: 56.0%
- % E Na^+ [2, 6]: 4.0%
- Ratio of the Ca/Na extraction rates ([2]; 0.2 Mol/L NaCl and 0.03 Mol/L CaCl2 (example 7)): 17.6
- Calcium to sodium extraction rate ([2]; mixture with an iso-concentration of cations (example 6)): 14 times
- Salt residual concentration after regeneration ([3]; 0.1 Mol/L CEM2 + 1 Mol/L ASM9 in 1,2-dichlorobenzene, initial charge 80 mMol/L CaCl2, iso-volume distilled water, 20° C.): 29.3 mmol/L
- Salt charging level after the first regeneration step ([3]; 0.1 Mol/L CEM2 + 1 Mol/L ASM9 in 1,2-dichlorobenzene, initial charge 80 mMol/L CaCl2, iso-volume distilled water, 80° C.): 15.27 mmol/L
- Reduction in the number of necessary regeneration steps, hot regeneration ([3]; 80° C. versus 20° C., same CaCl2 overall back-extraction rate): 2 fold
